From article PMC12236907, “A Natural Depsipeptide Antibiotic that Targets the E site of the Bacterial Ribosome” (Research Square, 2025) come the findings set out here.

Experiment [1] relates to E. coli S30 extract transcription-translation system. Kind of experiment: Inhibition of protein synthesis in E. coli cell-free transcription-translation system. The conditions noted are these: E. coli S30 lysate, pBESTluc plasmid, 0.05 to 100 μM, 1 h at 37°C, luminescence; mean ±SD of three technical replicates. The format is biochemical. Here is the method:
The impact of MKM-A and MKM-E on in vitro protein synthesis was evaluated using the E. coli S30 extract transcription-translation system (Promega) following the manufacturer’s protocol. The pBESTluc plasmid DNA was utilized as the template to produce firefly luciferase. MKM analogues were tested across a concentration range of 0.05 to 100 μM. The reactions were incubated for one hour at 37°C. Luminescence was then measured in opaque 96-well plates using a Synergy Microplate Reader (Biotek). The IC50 values, indicating the concentration at which MKMs inhibited protein synthesis by 50%, were determined using GraphPad Prism 10 software.

The test system of a further experiment is bacterial membrane. The experiment is described as follows: Membrane permeabilization (propidium iodide uptake and NPN assays). Particulars: E. coli BW25113; PI 4 μM up to 10×MIC (80 μg/ml), NPN 10 μM; 30 min, room temperature. The format is cell-based. Here is the method:
E. coli BW25113 cells were prepared according to the method for time-dependent killing and mixed with propidium iodide at a final concentration of 4 μM. A 190 μl aliquot of the cell suspension was added to the wells of a 96-well black-wall plate, followed by the addition of 10 μl of compounds at different concentrations up to 10×MIC (80 μg/ml). Colistin (5 μg/ml) was included as a positive control. Fluorescence was measured at an excitation/emission wavelength of 535/617 nm for 30 min at room temperature using a Synergy Microplate Reader (Biotek).
An overnight culture of E. coli BW25113 was subcultured into fresh MOPS minimal medium and allowed to grow until reaching mid-exponential phase. The culture was then diluted to an OD 600 of 0.1–0.2 in the same medium and supplemented with 10 μM NPN dye (prepared from a 20 mM stock solution in acetone). A volume of 190 μl of this cell suspension was combined with 10 μl of test compounds at various concentrations in a black 96-well plate. Water served as the vehicle control, as MKM-A was dissolved in water (adjust the vehicle accordingly based on the solubility of your compound). Colistin at 5 μg/ml was included as a positive control. Fluorescence was measured over a 30 min period at room temperature using a microplate reader, with readings taken every 0.5–1 min at an excitation/emission wavelength of 350/420 nm.

A further experiment relates to E. coli ribosome. The experiment is described as follows: In vitro translocation assay. The format is biochemical. Particulars: mRNA MFK; 50 μM MKM or 250 μM negamycin; 1 μM E. coli ribosomes. How it is done: In vitro translocation assay was carried out using the model mRNA MFK (Supplementary Table 7) as described in the reference. The mRNA was prepared by in vitro transcription of a PCR product amplified using the primers MF_F1, MF_F2, and MF_R (Supplementary Table 6). A 4.5 μl reaction containing 1 μM E. coli ribosomes, 0.5 μM mRNA, 1 μM tRNAi^Met, 0.5 μM radiolabelled NV1 primer (Supplementary Table 6), 2 U/μl RiboLock RNase Inhibitor (Thermo), and antibiotic tested (50 μM MKM or 250 μM negamycin) in Pure System Buffer (PSB; 9 mM Mg(CH3COO)2, 5 mM K3PO4, 95 mM potassium glutamate, 5 mM NH4Cl, 0.5 mM CaCl2, 1 mM spermidine, 8 mM putrescine, 1 mM dithiothreitol, pH 7.3)[87] was incubated for 20 min at 37°C. Then N-acetyl-Phe-N-tRNAPhe, in which amino acid is attached to the tRNA’s A3’ hydroxyl via an amide bond, was added to the final concentration of 2 μM followed by 10 min incubation at 37°C. After addition of the E. coli EF-G and GTP to the final concentrations of 0.2 μM and 533 μM, respectively and incubation for 5 min at 30°C, 1 μl of the mixture of AMV reverse transcriptase (Roche) and dNTPs (2.1 U/μl AMV RT and 2 mM dNTPs in PSB) was added, and the reactions were incubated for another 5 min at 30°C. […]

Another experiment has as its system E. coli. Kind of experiment: Antimicrobial activity, E. coli. The format is cell-based, Escherichia coli.
A further experiment concerns Klebsiella pneumoniae. The experiment is described as follows: Antimicrobial activity, Klebsiella pneumoniae. Format: cell-based.
Another experiment relates to mycobacteria. Kind of experiment: Antimicrobial activity, mycobacteria. The format is cell-based. The conditions noted are these: Middlebrook 7H9 + 10% OADC + 0.05% Tween-80.
In the next experiment the test system is K. pneumoniae C1559. Kind of experiment: Ex vivo efficacy in human blood. The conditions noted are these: K. pneumoniae C1559, 10^5 cfu/ml, 5×MIC of MKM, six hours, 37°C; three biological experiments. Format: cell-based, Klebsiella pneumoniae. Here is the method: Human blood was procured from BioIVT (New York, USA). […] CFUs were determined by serial dilution and cultivation on agar.

Another experiment concerns ribosome. The experiment is described as follows: Ribosome profiling (Ribo-seq).
Experiment [2] concerns E. coli BW25113 ΔtolCΔbamB expressing ManE. The experiment is described as follows: MIC in ManE-expressing E. coli. Particulars: manE on pGDP3.

Where a SMILES comes first, the peptide text is derived from it. Bridges are numbered along the chain shown (N, C = ends). [ ]: non-standard residue; d: D form. dOrn = NCCC[C@@H](N)C(=O)O Bounds are passed on as bounds.

For `C[C@@H](O)[C@@H]1NC(=O)[C@@H](CCCNC(=N)N)NC(=O)[C@@H](CCCNC(=N)N)NC(=O)[C@@H](CC(N)=O)NC(=O)[C@@H](NC(=O)[C@@H](Cc2ccccc2)NC(=O)[C@@H](CCCN)NC(=O)[C@H](N)CCCNC(=N)N)[C@@H](C)OC(=O)[C@H](Cc2c[nH]cn2)NC1=O` [MKM, manikomycin A] (H-[dR][dOrn][dF]T[dN][dR][dR]TH; ester 4-C), the IC50 (in general, the concentration that inhibits the measured activity by half) in [1] is 600 nM. Moreover, the “membrane permeabilization / disruption” value with bacterial membrane was “failed to permeabilize or distrupt the bacterial membrane”. Also, in the experiment on E. coli ribosome, the “inhibition of EF-G-dependent translocation” value was “notably inhibited”. The antimicrobial activity result in the experiment with E. coli and in the experiment on Klebsiella pneumoniae was “selective antimicrobial activity” throughout. In addition, the growth inhibition result in the experiment on mycobacteria is given as “readily inhibits the growth”. The “bacterial eradication in human blood” value in the experiment on K. pneumoniae C1559 is on record as “complete eradication”. In the experiment on ribosome (E. coli BL21ΔtolC, 50 μg/ml (25×MIC), 2 min), the metagene ribosome occupancy result is listed as “increased ribosome occupancy at the early mRNA codons”. Besides, in the experiment on ribosome (E. coli BL21ΔtolC, 50 μg/ml (25×MIC), 2 min, pLogo), the “codon depletion at MKM-induced arrest sites” value was “exclusion of Thr at the sites of MKM-induced arrest”. Also, the “codon enrichment at MKM-induced stalling sites” value with ribosome (E. coli BL21ΔtolC, 50 μg/ml (25×MIC), 2 min, pLogo, sites with ≥5-fold higher occupancy) is “enrichment of Pro codons in the P and A sites”. Besides, the “context specificity of action (summary)” value in the experiment on ribosome (ribosome profiling and toeprinting, Pro, Leu, Thr codons) is “more efficiently inhibiting ribosomes translating Pro and Leu codons and exhibiting less effect on those translating Thr codons”. In addition, in [2], the “increase in MIC on ManE expression” value is above 32 fold.
